Assays:
Type in all cases: biochemical
SHP1 = biological target: T1, SHP1 (Homo sapiens, UniProt P29350); experiment: Tyrosine phosphatase selectivity (pNPP substrate), SHP1; conditions: for IC50: SHP1, pNPP substrate; for IC50PTP/IC50SHP2 SHP1: selectivity ratio SHP1 over SHP2
T1 construct: made in house; host or cells: E. coli
Method: (§1) This experiment evaluated the selectivity of the disclosed compounds against tyrosine phosphatases, including SHP1, HePTP, Laforin, LMWPTP, LYP, PTP1B, PRL2, SSU72, VHR, FAP1, STEP, CDC14A, CD45, MEG2, and PP5, all expressed and purified from E. coli.
(§2) Phosphatase activity was measured using p-nitrophenyl phosphate (pNPP) (Fisher Scientific) as the substrate in 50 mM 3,3-dimethylglutaric acid buffer (pH 7.0, containing 1 mM EDTA), with ionic strength adjusted to 0.15 M with NaCl. […] After 10-60 minutes, the reaction was quenched by adding 20 µL of 5 N NaOH. Wells without enzyme were used as controls for correction. The amount of the product, p-nitrophenol, was determined by measuring the absorbance at 405 nm using a Spectra MAX340 microplate spectrophotometer (Molecular Devices), with a molar extinction coefficient of 18000 M^-1cm^-1.
(§3) Data were analyzed using GraphPad Prism software. Dose-response curves were obtained by fitting data using the nonlinear S-curve regression Dose-response-inhibition equation, and IC50 values were calculated.

LMWPTP = biological target: T2, LMWPTP (Homo sapiens, UniProt P24666); experiment: Tyrosine phosphatase selectivity (pNPP substrate), LMWPTP; conditions: for IC50: LMPTP*, pNPP substrate; for IC50PTP/IC50SHP2 LMPTP*: selectivity ratio LMPTP* over SHP2
T2 construct: made in house; host or cells: E. coli
T2 sequence (P24666 1-158): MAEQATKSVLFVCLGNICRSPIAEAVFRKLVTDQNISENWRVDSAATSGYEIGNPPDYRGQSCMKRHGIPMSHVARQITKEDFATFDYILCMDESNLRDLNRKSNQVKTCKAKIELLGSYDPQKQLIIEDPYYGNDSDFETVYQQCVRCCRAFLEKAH
Method: as §1, §2, §3

PTP1B = biological target: T3, PTP1B (Homo sapiens, UniProt P18031); experiment: Tyrosine phosphatase selectivity (pNPP substrate), PTP1B; conditions: for IC50: PTP1B, pNPP substrate; for IC50PTP/IC50SHP2 PTP1B: selectivity ratio PTP1B over SHP2
T3 construct: made in house; host or cells: E. coli
T3 sequence (P18031 1-435): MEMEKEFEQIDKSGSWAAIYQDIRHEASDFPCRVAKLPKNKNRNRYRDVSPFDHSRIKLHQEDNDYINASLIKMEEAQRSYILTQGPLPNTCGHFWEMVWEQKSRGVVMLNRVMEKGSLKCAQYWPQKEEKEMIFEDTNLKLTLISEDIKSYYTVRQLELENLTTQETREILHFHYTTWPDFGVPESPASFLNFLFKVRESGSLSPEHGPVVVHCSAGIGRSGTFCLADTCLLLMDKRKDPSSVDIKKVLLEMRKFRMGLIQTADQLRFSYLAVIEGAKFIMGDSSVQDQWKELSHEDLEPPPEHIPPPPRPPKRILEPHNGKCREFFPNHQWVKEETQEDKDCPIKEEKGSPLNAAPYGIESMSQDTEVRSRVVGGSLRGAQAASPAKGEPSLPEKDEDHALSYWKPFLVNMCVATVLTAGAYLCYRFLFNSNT
Method: as §1, §2, §3

PRL2 = biological target: T4, PRL2 (Homo sapiens, UniProt Q12974); experiment: Tyrosine phosphatase selectivity (pNPP substrate), PRL2; conditions: for IC50: PRL2, pNPP substrate; for IC50PTP/IC50SHP2 PRL2: selectivity ratio PRL2 over SHP2
T4 construct: made in house; host or cells: E. coli
T4 sequence (Q12974 1-167): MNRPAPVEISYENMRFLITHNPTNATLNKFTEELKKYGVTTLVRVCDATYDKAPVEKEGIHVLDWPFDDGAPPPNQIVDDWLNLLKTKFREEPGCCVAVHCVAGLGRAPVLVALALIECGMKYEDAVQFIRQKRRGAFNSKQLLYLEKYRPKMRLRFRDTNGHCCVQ
Method: as §1, §2, §3

VHR = biological target: T5, VHR (Homo sapiens, UniProt P51452); experiment: Tyrosine phosphatase selectivity (pNPP substrate), VHR; conditions: for IC50: VHR, pNPP substrate; for IC50PTP/IC50SHP2 VHR: selectivity ratio VHR over SHP2
T5 construct: made in house; host or cells: E. coli
T5 sequence (P51452 whole entry, species assumed): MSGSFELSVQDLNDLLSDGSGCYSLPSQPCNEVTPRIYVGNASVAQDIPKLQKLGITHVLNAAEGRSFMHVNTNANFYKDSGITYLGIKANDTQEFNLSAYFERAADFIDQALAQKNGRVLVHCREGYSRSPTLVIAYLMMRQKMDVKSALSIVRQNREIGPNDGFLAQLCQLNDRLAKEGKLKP
Method: as §1, §2, §3

FAP1 = experiment: Tyrosine phosphatase selectivity (pNPP substrate), FAP1; conditions: selectivity ratio FAP1 over SHP2
Method: as §1, §2, §3

STEP = biological target: T6, STEP (Homo sapiens, UniProt P54829); experiment: Tyrosine phosphatase selectivity (pNPP substrate), STEP; conditions: for IC50: STEP, pNPP substrate; for IC50PTP/IC50SHP2 STEP: selectivity ratio STEP over SHP2
T6 construct: made in house; host or cells: E. coli
T6 sequence (P54829 1-565): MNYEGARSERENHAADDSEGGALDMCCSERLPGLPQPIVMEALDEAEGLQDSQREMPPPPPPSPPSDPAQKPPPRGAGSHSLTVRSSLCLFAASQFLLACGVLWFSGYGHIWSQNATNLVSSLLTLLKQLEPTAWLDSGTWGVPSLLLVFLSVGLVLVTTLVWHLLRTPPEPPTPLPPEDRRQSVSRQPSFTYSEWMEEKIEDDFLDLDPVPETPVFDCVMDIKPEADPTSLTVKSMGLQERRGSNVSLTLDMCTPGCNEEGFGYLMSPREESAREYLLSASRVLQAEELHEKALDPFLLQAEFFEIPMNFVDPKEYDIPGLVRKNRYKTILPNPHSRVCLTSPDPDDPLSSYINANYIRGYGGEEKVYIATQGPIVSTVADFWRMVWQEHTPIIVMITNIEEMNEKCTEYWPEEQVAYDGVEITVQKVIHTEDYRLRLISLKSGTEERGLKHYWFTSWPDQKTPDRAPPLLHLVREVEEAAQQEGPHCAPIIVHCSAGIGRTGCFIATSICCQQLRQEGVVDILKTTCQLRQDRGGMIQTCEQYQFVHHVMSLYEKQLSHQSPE
Method: as §1, §2, §3

CDC14A = biological target: T7, CDC14A (Homo sapiens, UniProt Q9UNH5); experiment: Tyrosine phosphatase selectivity (pNPP substrate), CDC14A; conditions: for IC50PTP/IC50SHP2 CDC14A: selectivity ratio CDC14A over SHP2
T7 construct: made in house; host or cells: E. coli
T7 sequence (Q9UNH5 1-594): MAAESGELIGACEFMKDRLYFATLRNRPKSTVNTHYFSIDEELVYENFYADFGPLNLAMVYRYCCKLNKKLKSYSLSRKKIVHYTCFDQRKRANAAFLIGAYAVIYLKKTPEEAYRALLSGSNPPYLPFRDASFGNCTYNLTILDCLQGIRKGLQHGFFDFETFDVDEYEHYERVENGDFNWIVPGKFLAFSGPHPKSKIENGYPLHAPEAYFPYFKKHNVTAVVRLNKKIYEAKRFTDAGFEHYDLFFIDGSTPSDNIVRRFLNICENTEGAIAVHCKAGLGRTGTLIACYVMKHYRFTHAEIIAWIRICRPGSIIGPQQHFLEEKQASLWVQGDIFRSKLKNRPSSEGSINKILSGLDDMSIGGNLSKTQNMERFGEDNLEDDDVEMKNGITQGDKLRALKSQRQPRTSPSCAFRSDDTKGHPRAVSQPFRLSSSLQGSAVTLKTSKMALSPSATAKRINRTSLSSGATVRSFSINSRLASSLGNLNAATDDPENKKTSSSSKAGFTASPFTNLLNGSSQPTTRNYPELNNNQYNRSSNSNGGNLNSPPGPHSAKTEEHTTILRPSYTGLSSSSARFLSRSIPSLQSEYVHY
Method: as §1, §2, §3

T1 sequence (P29350 whole entry): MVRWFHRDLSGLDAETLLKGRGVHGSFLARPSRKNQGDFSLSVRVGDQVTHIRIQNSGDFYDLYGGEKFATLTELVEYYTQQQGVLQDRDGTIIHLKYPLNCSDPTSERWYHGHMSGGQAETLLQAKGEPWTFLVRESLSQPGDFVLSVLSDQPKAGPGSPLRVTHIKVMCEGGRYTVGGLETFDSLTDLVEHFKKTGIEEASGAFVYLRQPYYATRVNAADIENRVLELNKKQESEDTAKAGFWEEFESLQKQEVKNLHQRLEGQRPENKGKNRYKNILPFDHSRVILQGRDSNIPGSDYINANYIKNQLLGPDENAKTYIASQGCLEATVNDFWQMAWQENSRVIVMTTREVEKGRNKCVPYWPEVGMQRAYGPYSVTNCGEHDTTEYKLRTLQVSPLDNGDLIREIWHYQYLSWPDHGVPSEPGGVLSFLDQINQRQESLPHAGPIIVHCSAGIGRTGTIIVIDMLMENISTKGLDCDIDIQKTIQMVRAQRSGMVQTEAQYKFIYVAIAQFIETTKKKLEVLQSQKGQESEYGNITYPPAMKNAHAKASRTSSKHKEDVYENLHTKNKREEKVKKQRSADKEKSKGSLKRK

SMILES	IC50 (SHP1) [nM]	IC50PTP/IC50SHP2 SHP1 (SHP1)	IC50 (LMWPTP) [nM]	IC50PTP/IC50SHP2 LMPTP* (LMWPTP)	IC50 (PTP1B) [nM]	IC50PTP/IC50SHP2 PTP1B (PTP1B)	IC50 (PRL2) [nM]	IC50PTP/IC50SHP2 PRL2 (PRL2)	IC50 (VHR) [nM]	IC50PTP/IC50SHP2 VHR (VHR)	IC50PTP/IC50SHP2 FAP1 (FAP1)	IC50 (STEP) [nM]	IC50PTP/IC50SHP2 STEP (STEP)	IC50PTP/IC50SHP2 CDC14A (CDC14A)	IC50 (CDC14A; CDC14A, pNPP substrate) [nM]
O=C(Nc1ccc(-c2cc3cc(F)c(-c4nnn[nH]4)cc3n2C2CCC2)cc1)C(=O)Nc1ccc(N2CC3COCC3C2)cc1 (stereo not drawn) [Example 114]	100	1.3	2130	29.5	470	6.5	> 100000	1388	2140	29.7	26.3	1830	25.4	1388	
O=C(Nc1ccc(-c2cc3cc(F)c(-c4nnn[nH]4)cc3n2C2CCC2)cc1)C(=O)Nc1ccc(N2CCOCC2)cc1 [Example 47]	120	1.9	1090	17.3	370	5.8	> 100000	1587	1150	18.2	24.2	770	12.2	1587	
O=C(Nc1ccc(-c2cc3cc(F)c(-c4nnn[nH]4)cc3n2C2CCC2)cc1)C(=O)Nc1ccc(N2CCC3(CCOC3)CC2)cc1 [Example 67]	110	3.2	1370	40.2	390	11.4	> 100000	2941	4450	130	68.8	6940	204.1	2941	
Cn1cc(-c2ccc(NC(=O)C(=O)Nc3ccc(-c4cc5cc(F)c(-c6nnc(C(F)(F)F)[nH]6)cc5n4C4CCC4)cc3)cc2)cn1 [Example 124]	5620	7.8	> 20000	27.9	> 100000	139.7	> 100000	139.7	> 100000	139.7	139.7	> 100000	139.7	139.7	> 100000

From patent EP4741383A1, “COMPOUND AND USE THEREOF AS ANTI-CANCER DRUG” (Tyligand Bioscience (Shanghai) Limited, priority 2023, dated 2025)
